From US9687529B2, “Method of controlling coagulation” (Duke University, priority 2011, dated 2017)

Assays:
human blood = assay: Ex vivo extracorporeal oxygenator minicircuit with ACT+ monitoring; settings: human blood in ex vivo minicircuit; average donor baseline 115 seconds; FIG. 25 doses: UFH 5 U/mL, 9.3T 1 μM, 11F7T 2 μM, R9D-14T 5 μM, 11F7T 0.5 μM+R9D-14T 5 μM
Protocol: The extracorporeal minicircuit consisted of a sample line, custom-designed 8 mL Plexiglas® venous reservoir, a mechanical roller pump (MasterFlex®; Cole-Parmer Instrument Co., Vernon Hills, Ill.), and a custom-designed small-volume oxygenator that are all connected by MasterFlex precision silicone tubing (Cole-Parmer Instrument Co.) (de Lange et al, Br J Anaesth 99:177-83 (2007), de Lange et al, J Cardiothorac Surg 3:51 (2008). The 4 mL priming volume oxygenator is comprised of two Plexiglas® shells (12.8 cm×12.8 cm×2.7 cm) that cover a disposable three layer artificial diffusion membrane comprised of hollow polypropylene fibers glued together in a crosswise fashion. The surface area available for gas exchange is 558 cm^2. To prevent heat loss, one of the shells has an integrated heat exchanger, and the temperature was maintained at approximately 33° C. with a circulating water bath system (Gaymar Industries, Orchard Park, N.Y.). A MEAS reusable temperature probe (Model 451, Measurement Specialties Inc., Dayton, Ohio) was inserted into the reservoir to continuously measure the temperature, and an in-line flow probe (2N806 flow probe and T208 volume flowmeter; Transonics Systems, Inc., Ithaca, N.Y.) was used to continuously measure the blood flow. The circuit blood O2 level was maintained at 95% and the CO2 was maintained at 5%.
The minicircuit was primed with phosphate buffered saline (PBS) at a flow rate of 50 mL/min for approximately 30 min. Blood was drawn from healthy, consented volunteers and anticoagulated with 3.2% sodium citrate. Approximately 25 mL of citrated blood was incubated with 500 μL of anticoagulant (i.e., UFH or aptamer) at 37° C. for 5 min. The PBS was drained from the minicircuit, and the blood was added and circulated at a rate of 50 mL/min with 95% O2/5% CO2 at approximately 33° C. […] The venous blood gases were analyzed with a GEM Premier 3000 blood gas/electrolyte analyzer (model 5700; Instrumentation Laboratories, Inc, Lexington, Mass.) to determine the hematocrit, CaCl2, O2, and CO2 levels. […]

[1] = system: clot formation in normal human platelet poor plasma; assay: Prothrombin time (PT) plasma clotting assay; type: biochemical; settings: for increase of PT clotting time: 4 μM aptamer
Protocol: The activated partial thromboplastin time (aPTT) and prothrombin time (PT) assays were performed on a model ST4 mechanical coagulometer (Diagnostica Stago, Parsippany, N.J.) as previously described (Bompiani et al, J Thromb Haemost 10:870-80 (2012)). For the aPTT, 50 μL of normal human platelet poor plasma (PPP) was incubated with 50 μL TriniClot aPTT S (Trinity BioTech, Bray, Co Wicklow, Ireland) at 37° C. for 5 min. Aptamer(s) (5 μL) was added, and the mixture was incubated at 37° C. for another 5 min, and CaCl2 (50 μL) was added to initiate the assay. For the PT, 50 μL of normal human PPP was incubated with 5 μL of aptamer(s) at 37° C. for 5 min. TriniClot PT Excel reagent (Trinity BioTech, Bray, Co Wicklow, Ireland) (100 μL) was added to initiate the reaction. Assays with a combination of two aptamers contain an equimolar concentration of each individual aptamer, and the data shown are the total RNA concentration.
To compare the anticoagulant effect of these four aptamers, dose-response titrations were performed in several clinical plasma-based clotting assays. The activated partial thromboplastin time (aPTT) and prothrombin time (PT) are plasma clotting assays that are clinically used to probe for abnormalities in the intrinsic and extrinsic coagulation pathways, respectively (Van Cott et al, editors. Jacobs & DeMott laboratory test handbook. 5th ed. Hudson Ohio: Lexi-Comp. p. 327-58 (2001)). These relatively simple assays measure the time until clot formation in platelet poor plasma (PPP) in response to either robust tissue factor (TF), or contact stimulation via negatively charged surfaces (i.e., silica, kaolin, celite). […] At high concentrations, the prothrombin aptamer (R9D-14T) was the most robust anticoagulant and inhibited greater than 96% of prothrombin activity in the aPTT and PT. At 4 μM, R9D-14T increased the aPTT clotting time approximately 18-fold and the PT clotting time greater than 80-fold (exceeded the assay limit of 999 sec). […] At the same dose, the FIXa aptamer (9.3T) inhibited greater than 99% of FIX activity and increased the aPTT clotting time approximately 5.5-fold, while the FVIIa aptamer (7S-1) increased the PT clotting time 3-fold and inhibited greater than 99% of FVII activity (FIGS. 20A and 20B).

| Substance | ACT+ maximal clotting time (human blood) | increase of PT clotting time [1] | PT clotting time ([1]; 4 μM, assay limit 999 sec) | prothrombin activity inhibited ([1]; PT, high concentrations) |
| --- | --- | --- | --- | --- |
| 9.3T: FIXa aptamer, 2'-fluoropyrimidine modified RNA, SEQ ID NO: 1 (AUGGGGACUAUACCGCGUAAUGCUGCCUCCCCAU; 2'-fluoro at CU, RNA at AG, backbone not given here) [Aptamer 9.3T] | had no effect |  |  |  |
| R9D-14T: prothrombin/thrombin aptamer, 58-base truncation of RNA9D-14, SEQ ID NO: 3 (GGCGGTCGATCACACAGTTCAAACGTAATAAGCCAATGTACGAGGCAGACGACTCGCC; 2'-fluoro at CT, RNA at AG, backbone and T or U not given here) [Aptamer R9D-14T] | 365 s | greater than 80 fold | > 999 s | greater than 96% |
| 11F7T: FXa aptamer, 2'-fluoropyrimidine modified RNA, SEQ ID NO: 2 (GAGAGCCCCAGCGAGAUAAUACUUGGCCCCGCUCUU; 2'-fluoro at CU, RNA at AG, backbone not given here) [Aptamer 11F7T] | 213 s | approximately 8 fold |  |  |
